Data taken from patent US20160221992A1, “DENDRITIC COMPOUNDS INCLUDING A CHELATING, FLUOROCHROME OR RECOGNITION AGENT, COMPOSITIONS INCLUDING SAME AND USES THEREOF” (UNIVERSITE DE STRASBOURG, priority 2013, published 2016).

How the values were obtained:
[1] = system: murine melanoma (B16FO line); experiment: Quantitative study of tumoral fixation and biodistribution of the radiolabeled compound (ex-vivo gamma counting after IV injection); format: in vivo, C57B16 mice
[2] = system: murine melanoma (B16FO line); experiment: as above; format: in vivo, C57B16 mice; settings: for Ratio (g)/Al TU/kidneys / Ratio (g)/Al Tu/Liver / Ratio (g)/Al Tu/Lungs / Ratio (g)/Al Tu/blood / Total Elimination (% del ‘Al’) / Tumor (g/Al %) / Total Elimination: Indium-111-radiolabeled, IV
Protocol: C57B16 mice bearing xenografts of murine melanoma (B16FO line) obtained by subcutaneous injection of 300 000 cells suspended in 100 μl of RPMI culture medium are injected subcutaneously in the back. The experiment is performed when the tumors are palpable. i.e. about 10 days […]. All the experiments (tumoral graft, injection and imaging) are carried out under isoflurane/oxygen (2.5%/2.5%) gas anesthesia.
Injection of 50 to 100 microliters of the radiolabeled solution, with a maximum activity of 20 MBQ, by direct intravenous injection (caudal vein). The activity of the empty syringe after injection+compress is also measured for calculating the actual activity injected (actual Ac injected=Ac normalized full syringe—normalized activity (empty syringe and compress). Normalization consists in calculating the theoretical activity at one and the same time chosen as reference (for example the time of injection). The measurements are performed on a regularly calibrated activity meter for medical use (Medisystem©).
Scintigraphic imaging is carried out using a dedicated small animal micro-5 imager SPECT-CT (BIOSCAN™). A planar scintigraphic image is obtained immediately after injection to verify absence of intracaudal stasis. If there is stasis, the mouse will be sacrificed at late times (24 or 48 h). Static scintigraphic images may be recorded at 2 h, 4 h, 24 h and 48 h (Imager micro-SPECT-CT BIOSCAN©).
This is done ex-vivo by gamma counting of the various samples, using a gamma well counter for medical use, regularly calibrated for the isotopes used (Tc-99m and In-111). The animals are euthanized according to the protocols allowed by the animal ethics committee at 2 h, 4 h, 24 h or 48 h. The main organs are removed (brain, spleen, kidneys, lungs, heart, alimentary canal, liver) as well as a fragment of skin, muscle, bone and a blood sample and the whole tumor. Each sample is weighed and its gamma activity is counted in a sample-changing well counter for dedicated medical use, calibrated for the radioelements used. The animal's carcass is also weighed after removing the tail; these samples are incinerated and their gamma activity is also measured. The gamma activity of the samples containing all the collected urine and the feces is also measured. The activity of each sample is normalized (relative to the time of injection), and the ratio of the activity of each sample is calculated relative to the total activity injected (=the sum of all of the activities measured except that of the tail), expressed in % per gram of tissue, for calculating the ratio of the activity present in the tumor relative to the main organs (liver, kidneys, lungs and blood). The percentage of the activity eliminated is calculated.
The mean values of all of the data for all of the mice whose data are exploitable are calculated, as well as after eliminating the animals with urinary excretion that is too quick (>50% at 2 h or 75% at 4 h, as well as the mice with tumors >2 g, as the existence of necrosis may distort the calculation of the ratio of fixation in the tumor).
The biodistribution data of the various dendrimer compounds coupled to the IFC01102 ligand (also called amine R) and to a chelating agent are compared with those of the ligand alone coupled to the DOTA chelating agent (compound AP045) and radiolabeled with the same radioelement. 8.5 Results with Compound APAG9-1 (Radiolabeled with Tc99m) The radiochemical purity is above 95%, according to the chromatographic profile obtained as described above (example 5). 12 animals were injected. The average activity injected is 3.5±2.4 MBq. 2 animals were euthanized at 2 h, 4 at 24 h and 48 h post-injection. Examples of planar image immediately post-injection and 2 hours post-injection are illustrated in FIG. 3.

[3] = cited from earlier work
[4] = 48 post-IV, animals with low urinary excretion or under hydric restriction
[5] = 2 h post-iv, animals with low urinary excretion or under hydric restriction
[6] = 4 h post-IV, animals with low urinary excretion or under hydric restriction
[7] = 24 h post-IV, animals with low urinary excretion or under hydric restriction

Molecule: CCN(CC)CCNC(=O)c1cnc2cc(NC(=O)NCCOCCOCCNC(=O)CN3CCN(CC(=O)O)CCN(CC(=O)O)CCN(CC(=O)O)CC3)ccc2n1 [AP045, reference compound]
- Total Elimination (% del ‘Al’) ([1]; 4 h post-IV, Indium-111-radiolabeled, IV): 6.38E+01 % del ‘Al’
- tumor/kidney ratio (in words) ([1]; Indium-111, activity in the kidneys still high): unfavorable
- Ratio (g)/Al TU/kidneys ([2]; 48 post-IV): 4.06E−01
- Ratio (g)/Al Tu/Liver ([2]; 48 post-IV): 7.14E−02
- Ratio (g)/Al Tu/Lungs ([2]; 48 post-IV): 2.97E+00
- Ratio (g)/Al Tu/blood ([2]; 48 post-IV): 9.95E+00
- Total Elimination (% del ‘Al’) ([2]; 48 post-IV): 7.23E+01 % del ‘Al’
- Tumor (g/Al %) ([2]; 48 post-IV): 1.19E+00 g/Al %
- Ratio (g)/Al TU/kidneys ([2]; 4 h post-IV): 2.45E−01
- Ratio (g)/Al Tu/Liver ([2]; 4 h post-IV): 4.97E−02
- Ratio (g)/Al Tu/Lungs ([2]; 4 h post-IV): 1.92E+00
- Ratio (g)/Al Tu/blood ([2]; 4 h post-IV): 1.12E+01
- Tumor (g/Al %) ([2]; 4 h post-IV): 1.44E+00 g/Al %
- tumor ratio relative to the liver ([2]; 24 hours after IV injection, Indium-111): greater than 1
- Ratio (g)/Al TU/kidneys ([2]; 24 h post-IV): 2.93E−01
- Ratio (g)/Al Tu/Liver ([2]; 24 h post-IV): 1.31E+00
- Ratio (g)/Al Tu/Lungs ([2]; 24 h post-IV): 3.55E+00
- Total Elimination (% del ‘Al’) ([2]; 24 h post-IV): 90.33 % del ‘Al’
- Tumor (g/Al %) ([2]; 24 h post-IV): 1.77E+00 g/Al %
- time at which the maximum tumoral uptake is observed ([2]; after IV injection of the radiolabeled compound): 24 h

Molecule: CCN(CC)CCNC(=O)c1cnc2cc(NC(=O)NCCOCCOCCNC(=O)CCOCCOCCOCCOCCNC(=O)CCN(CCNC(=O)CCN(CCC(=O)NCCN(CCC(=O)NCCOCCOCCOCCOCCC(=O)NCCOCCOCCNC(=O)Nc3ccc4nc(C(=O)NCCN(CC)CC)cnc4c3)CCC(=O)NCCOCCOCCOCCOCCC(=O)NCCOCCOCCNC(=O)Nc3ccc4nc(C(=O)NCCN(CC)CC)cnc4c3)Cc3cn(CCOCCOCCOCCOCCNC(=O)CN4CCN(CC(=O)O)CCN(CC(=O)O)CCN(CC(=O)O)CC4)nn3)CCC(=O)NCCOCCOCCOCCOCCC(=O)NCCOCCOCCNC(=O)Nc3ccc4nc(C(=O)NCCN(CC)CC)cnc4c3)ccc2n1 [AP070]
- tumoral uptake relative to the compound AP071 ([1]; notably at 4 hours, Indium-111): lower
- Ratio (g)/Al TU/kidneys [2, 4]: 5.23E−01
- Ratio (g)/Al Tu/Liver [2, 4]: 1.59E+00
- Ratio (g)/Al Tu/Lungs [2, 4]: 6.28E+00
- Ratio (g)/Al Tu/blood [2, 4]: 1.74E+01
- Total Elimination [2, 4]: 8.4E+01
- Tumor (g/Al %) [2, 4]: 3.60E+00 g/Al %
- Ratio (g)/Al TU/kidneys [2, 5]: 3.6E−01
- Ratio (g)/Al Tu/Liver [2, 5]: 1.4E+00
- Ratio (g)/Al Tu/Lungs [2, 5]: 2.1E+00
- Ratio (g)/Al Tu/blood [2, 5]: 1.9E+00
- Total Elimination [2, 5]: 4.8E+01
- Tumor (g/Al %) [2, 5]: 5.9E+00 g/Al %
- tumoral uptake (in words) ([2]; 4 hours after IV injection, Indium-111): high
- Ratio (g)/Al TU/kidneys [2, 6]: 3.96E−01
- Ratio (g)/Al Tu/Liver [2, 6]: 1.28E+00
- Ratio (g)/Al Tu/Lungs [2, 6]: 2.93E+00
- Ratio (g)/Al Tu/blood [2, 6]: 3.07E+00
- Total Elimination [2, 6]: 2.6E+01
- Tumor (g/Al %) [2, 6]: 1.27E+01 g/Al %
- Ratio (g)/Al TU/kidneys [2, 7]: 2.58E−01
- Ratio (g)/Al Tu/Liver [2, 7]: 4.06E−01
- Ratio (g)/Al Tu/Lungs [2, 7]: 3.52E+00
- Ratio (g)/Al Tu/blood [2, 7]: 2.00E+01
- Total Elimination [2, 7]: 6.8E+01
- Tumor (g/Al %) [2, 7]: 3.69E+00 g/Al %
- tumoral uptake compared with the ligand alone (AP045) ([2]; APAG22-1: at two hours post-IV): far higher
- tumor/liver ratio relative to the compound AP071 ([2]; Indium-111): less favorable

Molecule: O=C([O-])CN(CCN(CC(=O)[O-])CC(=O)O)CCN(CC(=O)[O-])CC(=O)O.[Gd+3] [Gd(III)-DTPA]
- relaxation rate r1 ([3]; 0.6 T, 20° C.): 5400 M⁻¹ s⁻¹

Molecule: Gadomer-17
- r1 ([3]; 1.5 T and 37° C.): 15.2 mM⁻¹ s⁻¹
